Test results from patent US20250122183A1 (Pfizer Inc., priority 2023, published 2025).
Read-outs that look alike come from different tables or passages of the source.

Tests used:
Type in all cases: biochemical
Conditions in all cases: replicate number in parentheses
[1] = molecular target: KAT7+JADE1+EAF6+ING5 4 protein complex (Homo sapiens (Human), UniProt O95251); test: KAT7 JADE1 assay (SAMDI-MS acetylation of H3 1-21 peptide)
KAT8 Full length enzyme = KAT8 Full length enzyme (Homo sapiens (Human), UniProt Q9H7Z6); test: KAT8 assay (SAMDI-MS acetylation of H3 1-21 peptide)
KAT6A Full length enzyme = KAT6A Full length enzyme (Homo sapiens (Human), UniProt Q92794); test: KAT6A assay (SAMDI-MS acetylation of H3 1-21 peptide)
[2] = Morrison equation fit, read-out: KAT7 JADE1 Ki (nM) (replicate number)
[3] = Morrison equation fit, read-out: KAT8 Ki (nM) (replicate number)
[4] = Morrison equation fit, read-out: KAT6A Ki (nM) (replicate number)
[5] = read-out: KAT7 JADE1 Ki (nM) (replicate)
[6] = read-out: KAT8 Ki (nM) (replicate)
[7] = read-out: KAT6A Ki (nM) (replicate)

KAT8 Full length enzyme, sequence (Q9H7Z6 whole entry): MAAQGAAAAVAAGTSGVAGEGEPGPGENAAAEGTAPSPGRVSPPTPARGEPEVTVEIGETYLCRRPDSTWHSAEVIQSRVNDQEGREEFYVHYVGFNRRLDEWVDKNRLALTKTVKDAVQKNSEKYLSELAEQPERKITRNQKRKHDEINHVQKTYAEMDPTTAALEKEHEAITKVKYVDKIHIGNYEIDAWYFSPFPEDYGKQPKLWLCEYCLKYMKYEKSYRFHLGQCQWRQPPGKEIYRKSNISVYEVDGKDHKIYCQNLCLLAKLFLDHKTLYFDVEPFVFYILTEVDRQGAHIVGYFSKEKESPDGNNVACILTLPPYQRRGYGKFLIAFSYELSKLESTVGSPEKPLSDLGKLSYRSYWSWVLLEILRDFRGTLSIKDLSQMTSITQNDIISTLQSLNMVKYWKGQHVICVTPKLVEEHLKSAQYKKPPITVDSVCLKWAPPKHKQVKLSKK
KAT6A Full length enzyme, sequence (Q92794 other isoform, or with tags, fused parts or gaps): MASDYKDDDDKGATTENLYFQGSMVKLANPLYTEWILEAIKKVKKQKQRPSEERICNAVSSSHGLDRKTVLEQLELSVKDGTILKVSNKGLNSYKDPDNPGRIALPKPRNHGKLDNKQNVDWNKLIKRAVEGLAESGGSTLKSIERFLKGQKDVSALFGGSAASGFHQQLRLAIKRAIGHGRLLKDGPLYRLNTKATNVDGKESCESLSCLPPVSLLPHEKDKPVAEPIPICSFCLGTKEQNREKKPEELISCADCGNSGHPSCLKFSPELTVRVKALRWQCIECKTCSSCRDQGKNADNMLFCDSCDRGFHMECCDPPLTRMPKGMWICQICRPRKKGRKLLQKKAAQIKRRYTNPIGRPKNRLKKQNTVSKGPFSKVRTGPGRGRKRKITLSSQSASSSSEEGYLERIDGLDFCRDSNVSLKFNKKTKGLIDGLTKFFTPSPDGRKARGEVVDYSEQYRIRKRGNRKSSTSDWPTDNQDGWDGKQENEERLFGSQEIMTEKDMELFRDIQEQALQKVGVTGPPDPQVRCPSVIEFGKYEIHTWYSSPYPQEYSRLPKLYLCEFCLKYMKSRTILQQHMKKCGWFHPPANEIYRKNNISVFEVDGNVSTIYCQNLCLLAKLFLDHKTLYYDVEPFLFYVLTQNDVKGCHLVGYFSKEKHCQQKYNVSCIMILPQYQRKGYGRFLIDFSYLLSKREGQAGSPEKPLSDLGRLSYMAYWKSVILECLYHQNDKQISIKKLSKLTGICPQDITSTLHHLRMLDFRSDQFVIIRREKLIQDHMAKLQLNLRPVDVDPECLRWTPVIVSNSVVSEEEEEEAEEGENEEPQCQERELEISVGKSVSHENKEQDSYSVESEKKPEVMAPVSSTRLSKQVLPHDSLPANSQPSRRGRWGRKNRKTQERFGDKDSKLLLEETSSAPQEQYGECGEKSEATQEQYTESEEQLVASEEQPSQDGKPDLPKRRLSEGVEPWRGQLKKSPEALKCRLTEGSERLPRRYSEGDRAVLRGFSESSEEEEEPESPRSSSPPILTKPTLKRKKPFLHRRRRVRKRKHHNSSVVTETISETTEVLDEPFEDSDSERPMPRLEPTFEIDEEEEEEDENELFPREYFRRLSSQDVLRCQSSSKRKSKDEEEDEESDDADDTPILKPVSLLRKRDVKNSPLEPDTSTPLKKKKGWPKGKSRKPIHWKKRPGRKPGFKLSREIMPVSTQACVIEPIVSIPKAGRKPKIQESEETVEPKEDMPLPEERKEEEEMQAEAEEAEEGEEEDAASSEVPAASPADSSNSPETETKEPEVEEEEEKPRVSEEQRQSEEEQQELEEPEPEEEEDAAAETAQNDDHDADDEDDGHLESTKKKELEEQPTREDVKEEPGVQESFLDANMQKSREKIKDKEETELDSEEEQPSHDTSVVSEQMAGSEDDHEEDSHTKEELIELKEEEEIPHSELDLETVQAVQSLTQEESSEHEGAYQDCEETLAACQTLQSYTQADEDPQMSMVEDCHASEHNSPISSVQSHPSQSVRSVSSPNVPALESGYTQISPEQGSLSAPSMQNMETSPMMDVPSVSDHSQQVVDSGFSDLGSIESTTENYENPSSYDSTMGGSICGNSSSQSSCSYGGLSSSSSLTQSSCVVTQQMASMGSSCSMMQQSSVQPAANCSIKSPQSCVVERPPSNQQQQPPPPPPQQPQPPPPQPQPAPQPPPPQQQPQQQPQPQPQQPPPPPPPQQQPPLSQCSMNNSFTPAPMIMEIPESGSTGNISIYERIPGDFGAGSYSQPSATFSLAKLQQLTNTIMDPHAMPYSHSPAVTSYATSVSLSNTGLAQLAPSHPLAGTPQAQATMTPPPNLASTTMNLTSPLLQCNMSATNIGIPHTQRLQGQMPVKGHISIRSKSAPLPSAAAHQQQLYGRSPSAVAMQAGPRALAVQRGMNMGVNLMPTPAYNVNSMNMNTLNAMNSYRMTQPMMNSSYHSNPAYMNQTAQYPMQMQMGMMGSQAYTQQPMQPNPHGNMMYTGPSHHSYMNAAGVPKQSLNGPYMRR

| Structure (SMILES) | Ki [1, 2] [nM] | Ki (KAT8 Full length enzyme; [3]) [nM] | Ki (KAT6A Full length enzyme; [4]) [nM] | Ki [1, 5] [nM] | Ki (KAT8 Full length enzyme; [6]) [nM] | Ki (KAT6A Full length enzyme; [7]) [nM] |
| --- | --- | --- | --- | --- | --- | --- |
| COc1cc2c(NS(=O)(=O)c3c(OC)cc(-c4cccn(C)c4=O)cc3OC)noc2cc1Nc1cc(C2CC2)n[nH]1 [Example 221, N-{6-[(3-cyclopropyl-1H-pyrazol-5-yl)amino]-5-methoxy-1,2-benzoxazol-3-yl}-2,6-dimethoxy-4-(1-methyl-2-oxo-1,2-dihydropyridin-3-yl)benzene-1-sulfonamide] | 6.2 | 1490 | 0.7 | – | – | – |
| COc1cc2c(NS(=O)(=O)c3c(OC)cc(N4CCCC4=O)cc3OC)noc2cc1Nc1cc(C2CC2)n[nH]1 [Example 246, N-{6-[(3-cyclopropyl-1H-pyrazol-5-yl)amino]-5-methoxy-1,2-benzoxazol-3-yl}-2,6-dimethoxy-4-(2-oxopyrrolidin-1-yl)benzene-1-sulfonamide] | – | – | – | 6.4 | 1840 | 1 |
| CCc1cc(Nc2cc3onc(NS(=O)(=O)c4c(OC)cc(-c5nccc(C)n5)cc4OC)c3cc2OC)[nH]n1 [Example 233, N-{6-[(3-ethyl-1H-pyrazol-5-yl)amino]-5-methoxy-1,2-benzoxazol-3-yl}-2,6-dimethoxy-4-(4-methylpyrimidin-2-yl)benzene-1-sulfonamide] | 8.9 | 2000 | 1.7 | – | – | – |
| COc1cc2c(NS(=O)(=O)c3c(OC)cc(C4CCOCC4)cc3OC)noc2cc1Nc1cc(C2CC2)n[nH]1 [Example 265, N-{6-[(3-cyclopropyl-1 H-pyrazol-5-yl)amino]-5-methoxy-1,2-benzoxazol-3-yl}-2,6-dimethoxy-4-(oxan-4-yl)benzene-1-sulfonamide] | – | – | – | 2.3 | 918 | 0.3 |
| COc1cc2c(NS(=O)(=O)c3c(OC)cc(N4CC(OC)C4)cc3OC)noc2cc1Nc1cc(C2CC2)n[nH]1 [Example 253, N-{6-[(3-cyclopropyl-1H-pyrazol-5-yl)amino]-5-methoxy-1,2-benzoxazol-3-yl}-2,6-dimethoxy-4-(3-methoxyazetidin-1-yl)benzene-1-sulfonamide] | – | – | – | 5 | – | 0.6 |
| COc1cc2c(NS(=O)(=O)c3c(OC)cc(-c4ccc(C)nn4)cc3OC)noc2cc1Nc1cc(C2CC2)n[nH]1 [Example 219, N-{6-[(3-cyclopropyl-1H-pyrazol-5-yl)amino]-5-methoxy-1,2-benzoxazol-3-yl}-2,6-dimethoxy-4-(6-methylpyridazin-3-yl)benzene-1-sulfonamide] | 1.9 | – | 0.2 | – | – | – |
| COc1cc2c(NS(=O)(=O)c3c(OC)cc(C4CCCOC4)cc3OC)noc2cc1Nc1cc(C2CC2)n[nH]1 (single isomer, unassigned) [Example 269, N-{6-[(3-cyclopropyl-1 H-pyrazol-5-yl)amino]-5-methoxy-1,2-benzoxazol-3-yl}-2,6-dimethoxy-4-(oxan-3-yl)benzene-1-sulfonamide] | – | – | – | 6.1 | – | 0.8 |
| COc1cc2c(NS(=O)(=O)c3c(OC)cc(CN4CCC(F)(F)C4)cc3OC)noc2cc1Nc1cc(C2CC2)n[nH]1 [Example 196, N-{6-[(3-cyclopropyl-1H-pyrazol-5-yl)amino]-5-methoxy-1,2-benzoxazol-3-yl}-4-[(3,3-difluoropyrrolidin-1-yl)methyl]-2,6-dimethoxybenzene-1-sulfonamide] | 4 | – | 0.9 | – | – | – |
| COCC(OC)c1cc(OC)c(S(=O)(=O)Nc2noc3cc(Nc4cc(C5CC5)[nH]n4)c(OC)cc23)c(OC)c1 (single isomer, unassigned) [Example 275, N-{6-[(5-cyclopropyl-1H-pyrazol-3-yl)amino]-5-methoxy-1,2-benzoxazol-3-yl}-4-(1,2-dimethoxyethyl)-2,6-dimethoxybenzene-1-sulfonamide] | – | – | – | 9.7 | – | 1.1 |
| COCc1cc(Nc2cc3onc(NS(=O)(=O)c4c(OC)cccc4OC)c3cc2OC)n(C)n1 [Example 60, 2,6-dimethoxy-N-(5-methoxy-6-{[3-(methoxymethyl)-1-methyl-1H-pyrazol-5-yl]amino}-1,2-benzoxazol-3-yl)benzene-1-sulfonamide] | > 12500 | – | > 377 | – | – | – |
| COc1cc2c(NS(=O)(=O)c3c(OC)cccc3OC)noc2cc1Nc1cc(C)nn1C(C)C [Example 52, 2,6-dimethoxy-N-(5-methoxy-6-{[3-methyl-1-(propan-2-yl)-1H-pyrazol-5-yl]amino}-1,2-benzoxazol-3-yl)benzene-1-sulfonamide] | > 12500 | – | 73.5 | – | – | – |
| COc1cc2c(NS(=O)(=O)c3c(OC)cc(C4CCCN([C@@H]5CCOC5)C4)cc3OC)noc2cc1Nc1cc(C2CC2)n[nH]1 (single isomer, unassigned) [Example 158] | 8.7 | – | 1.2 | – | – | – |
| COc1cc2c(NS(=O)(=O)c3c(OC)cccc3OC)noc2cc1Nc1cc(C(C)C)nn1C [Example 51, 2,6-dimethoxy-N-(5-methoxy-6-{[1-methyl-3-(propan-2-yl)-1H-pyrazol-5-yl]amino}-1,2-benzoxazol-3-yl)benzene-1-sulfonamide] | > 4990 | – | > 377 | – | – | – |
| CCN1CCOC(c2cc(OC)c(S(=O)(=O)Nc3noc4cc(Nc5cc(C6CC6)n[nH]5)c(OC)cc34)c(OC)c2)C1 (single isomer, unassigned) [Example 156, N-{6-[(3-cyclopropyl-1 H-pyrazol-5-yl)amino]-5-methoxy-1,2-benzoxazol-3-yl}-4-(4-ethylmorpholin-2-yl)-2,6-dimethoxybenzene-1-sulfonamide] | 4 | – | 0.8 | – | – | – |
| COc1cc2c(NS(=O)(=O)c3ccccc3)noc2cc1Nc1ccn(C)n1 [Example 21, N-{5-methoxy-6-[(1-methyl-1H-pyrazol-3-yl)amino]-1,2-benzoxazol-3-yl}benzenesulfonamide] | 625 | – | 7.9 | – | – | – |
| COc1cc2c(NS(=O)(=O)c3c(OC)cc(CN4CC(C)C4)cc3OC)noc2cc1Nc1cc(C2CC2)n[nH]1 [Example 200, N-{6-[(3-cyclopropyl-1 H-pyrazol-5-yl)amino]-5-methoxy-1,2-benzoxazol-3-yl}-2,6-dimethoxy-4-[(3-methylazetidin-1-yl)methyl]benzene-1-sulfonamide] | 17.2 | – | 2.1 | – | – | – |
| COc1cc2c(NS(=O)(=O)c3c(OC)cc(C4CCCCN4C)cc3OC)noc2cc1Nc1cc(C2CC2)n[nH]1 (single isomer, unassigned) [Example 172, N-{6-[(3-cyclopropyl-1 H-pyrazol-5-yl)amino]-5-methoxy-1,2-benzoxazol-3-yl}-2,6-dimethoxy-4-(1-methylpiperidin-2-yl)benzene-1-sulfonamide] | 34.1 | – | 4.4 | – | – | – |
| COc1cc2c(NS(=O)(=O)c3c(OC)cc(C(=O)N4CCC(F)(F)C4)cc3OC)noc2cc1Nc1cc(C2CC2)n[nH]1 [Example 257, N-{6-[(3-cyclopropyl-1H-pyrazol-5-yl)amino]-5-methoxy-1,2-benzoxazol-3-yl}-4-(3,3-difluoropyrrolidine-1-carbonyl)-2,6-dimethoxybenzene-1-sulfonamide] | – | – | – | 9.5 | – | 1.6 |
| COc1cc2c(NS(=O)(=O)c3c(OC)cc(N4C(=O)CCC45CCC5)cc3OC)noc2cc1Nc1cc(C2CC2)n[nH]1 [Example 255, N-{6-[(3-cyclopropyl-1 H-pyrazol-5-yl)amino]-5-methoxy-1,2-benzoxazol-3-yl}-2,6-dimethoxy-4-(6-oxo-5-azaspiro[3.4]octan-5-yl)benzene-1-sulfonamide] | – | – | – | 4.2 | – | 0.8 |
| COc1cc2c(NS(=O)(=O)c3c(OC)cc(CN4CCC(OC)CC4)cc3OC)noc2cc1Nc1cc(C2CC2)n[nH]1 [Example 194, N-{6-[(3-cyclopropyl-1 H-pyrazol-5-yl)amino]-5-methoxy-1,2-benzoxazol-3-yl}-2,6-dimethoxy-4-[(4-methoxypiperidin-1-yl)methyl]benzene-1-sulfonamide] | 6.3 | – | 1.7 | – | – | – |
| COc1cc2c(NS(=O)(=O)c3c(OC)cc(C4CCO4)cc3OC)noc2cc1Nc1cc(C2CC2)n[nH]1 (stereo not drawn) [Example 276, N-{6-[(3-cyclopropyl-1H-pyrazol-5-yl)amino]-5-methoxy-1,2-benzoxazol-3-yl}-2,6-dimethoxy-4-(oxetan-2-yl)benzene-1-sulfonamide] | – | – | – | 16.8 | – | 1.3 |
| COc1cc2c(NS(=O)(=O)c3c(OC)cc(C4CCN([C@@H]5CCOC5)C4)cc3OC)noc2cc1Nc1cc(C2CC2)n[nH]1 (single isomer, unassigned) [Example 160] | 6.9 | – | 1 | – | – | – |
| CCc1cc(Nc2cc3onc(NS(=O)(=O)c4c(OC)cc(C5COCCO5)cc4OC)c3cc2OC)[nH]n1 (single isomer, unassigned) [Example 239, 4-(1,4-dioxan-2-yl)-N-{6-[(3-ethyl-1H-pyrazol-5-yl)amino]-5-methoxy-1,2-benzoxazol-3-yl}-2,6-dimethoxybenzene-1-sulfonamide] | 14.1 | – | 2.1 | – | – | – |
| COc1cc2c(NS(=O)(=O)c3c(OC)cc(-c4nccc(N(C)C)n4)cc3OC)noc2cc1Nc1cc(C2CC2)n[nH]1 [Example 216, N-{6-[(3-cyclopropyl-1H-pyrazol-5-yl)amino]-5-methoxy-1,2-benzoxazol-3-yl}-4-[4-(dimethylamino)pyrimidin-2-yl]-2,6-dimethoxybenzene-1-sulfonamide] | 1.6 | – | 0.2 | – | – | – |
| CCN1CCCCC1c1cc(OC)c(S(=O)(=O)Nc2noc3cc(Nc4cc(C5CC5)n[nH]4)c(OC)cc23)c(OC)c1 (single isomer, unassigned) [Example 174, N-{6-[(3-cyclopropyl-1 H-pyrazol-5-yl)amino]-5-methoxy-1,2-benzoxazol-3-yl}-4-(1-ethylpiperidin-2-yl)-2,6-dimethoxybenzene-1-sulfonamide] | 27.3 | – | 4.4 | – | – | – |
